One assay has as its target human FAK (Homo sapiens (Human), UniProt Q05397). The conditions noted are these: read-out: FAK IC50.
For the next assay, the target named is human JAK2 (Homo sapiens (Human), UniProt O60674). As to conditions: read-out: JAK2 IC50.

The structures appear in SMILES notation.

Sequence of human JAK2 (O60674 815-1132): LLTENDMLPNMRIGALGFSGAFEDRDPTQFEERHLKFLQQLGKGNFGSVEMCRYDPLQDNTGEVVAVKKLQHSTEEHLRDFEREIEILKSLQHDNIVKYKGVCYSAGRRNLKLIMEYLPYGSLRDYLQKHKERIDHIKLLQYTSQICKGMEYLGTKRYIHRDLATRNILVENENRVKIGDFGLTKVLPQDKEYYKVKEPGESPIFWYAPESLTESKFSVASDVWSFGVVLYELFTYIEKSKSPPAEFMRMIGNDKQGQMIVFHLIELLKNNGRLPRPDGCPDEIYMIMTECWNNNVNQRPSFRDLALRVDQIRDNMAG
Sequence of human FAK (Q05397 whole entry): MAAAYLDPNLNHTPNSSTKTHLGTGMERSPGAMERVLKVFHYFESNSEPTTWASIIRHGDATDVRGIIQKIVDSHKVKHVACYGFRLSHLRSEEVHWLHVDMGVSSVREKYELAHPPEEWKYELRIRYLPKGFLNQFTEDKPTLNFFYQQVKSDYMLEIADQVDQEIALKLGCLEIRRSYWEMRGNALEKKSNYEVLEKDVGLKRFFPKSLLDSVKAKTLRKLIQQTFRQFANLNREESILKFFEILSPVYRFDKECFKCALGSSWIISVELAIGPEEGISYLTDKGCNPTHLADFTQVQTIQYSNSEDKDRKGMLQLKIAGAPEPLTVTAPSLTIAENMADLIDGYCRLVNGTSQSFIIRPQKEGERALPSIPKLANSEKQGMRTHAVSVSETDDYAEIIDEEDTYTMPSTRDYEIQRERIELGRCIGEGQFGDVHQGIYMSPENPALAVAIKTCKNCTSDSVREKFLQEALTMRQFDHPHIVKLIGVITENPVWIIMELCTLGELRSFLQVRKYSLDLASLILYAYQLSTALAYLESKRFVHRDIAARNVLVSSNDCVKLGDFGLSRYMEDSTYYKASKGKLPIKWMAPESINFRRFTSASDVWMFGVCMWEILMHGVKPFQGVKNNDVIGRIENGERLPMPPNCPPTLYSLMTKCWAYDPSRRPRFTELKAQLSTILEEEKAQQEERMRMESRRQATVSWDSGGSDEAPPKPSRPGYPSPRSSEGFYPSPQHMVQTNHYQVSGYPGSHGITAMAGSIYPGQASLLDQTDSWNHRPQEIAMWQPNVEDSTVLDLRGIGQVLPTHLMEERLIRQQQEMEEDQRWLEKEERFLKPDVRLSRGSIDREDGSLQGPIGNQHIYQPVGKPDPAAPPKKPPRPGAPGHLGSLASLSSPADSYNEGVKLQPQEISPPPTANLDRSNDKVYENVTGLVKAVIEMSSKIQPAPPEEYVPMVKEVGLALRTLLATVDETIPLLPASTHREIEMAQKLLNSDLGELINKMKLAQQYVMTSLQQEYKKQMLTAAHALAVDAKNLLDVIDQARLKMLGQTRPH

As to `CN1CCN(c2cccc(Nc3nc4c(-c5cccc(CN(C)S(C)(=O)=O)c5)cccn4n3)c2)CC1` [Example 176, N-Methyl-N-(3-{2-[3-(4-methyl-piperazin-1-yl)-phenylamino]-[1,2,4]triazolo[1,5-a]pyridin-8-yl}-benzyl)-methanesulfonamide], the IC50 – broadly, the concentration that gives 50% inhibition – on human FAK is 3000 nM; on human JAK2, 5.94 nM.

`CN(Cc1cccc(-c2cccn3nc(Nc4ccc(OCCN5CCCC5)cc4)nc23)c1)S(C)(=O)=O` [Example 177, N-Methyl-N-(3-{2-[4-(2-pyrrolidin-1-yl-ethoxy)-phenylamino]-[1,2,4]triazolo[1,5-a]pyridin-8-yl}-benzyl)-methanesulfonamide]: the figures for the IC50 on human FAK and at human JAK2 were 3000 nM and 7.34 nM, respectively.

In the case of `CC(C)(C)OC(=O)N1CCN(c2cccc(Nc3nc4c(-c5ccc(S(C)(=O)=O)cc5)cccn4n3)c2)CC1` [Example 179, 4-{3-[8-(4-Methanesulfonyl-phenyl)-[1,2,4]triazolo[1,5-a]pyridin-2-ylamino]-phenyl}-piperazine-1-carboxylic acid tert-butyl ester], the IC50 on human FAK turned out to be 10000 nM; at human JAK2 it was 3.72 nM.

For `CS(=O)(=O)c1ccc(-c2cccn3nc(Nc4cccc(N5CCNCC5)c4)nc23)cc1` [Example 181, [8-(4-Methanesulfonyl-phenyl)-[1,2,4]triazolo[1,5-a]pyridin-2-yl]-(3-piperazin-1-yl-phenyl)-amine], the IC50 stood at 1130 nM on human FAK and 0.97 nM at human JAK2.

With `CS(=O)(=O)c1ccc(-c2cccn3nc(Nc4cccc(N5CCN(CC(N)=O)CC5)c4)nc23)cc1` [Example 183, 2-(4-{3-[8-(4-Methanesulfonyl-phenyl)-[1,2,4]triazolo[1,5-a]pyridin-2-ylamino]-phenyl}-piperazin-1-yl)-acetamide], the IC50 on human FAK was found to be 6500 nM; at human JAK2, 0.65 nM.

For `CS(=O)(=O)c1ccc(-c2cccn3nc(Nc4cccc(C5CCN(CC(N)=O)CC5)c4)nc23)cc1` [Example 184, 2-(4-{3-[8-(4-Methanesulfonyl-phenyl)-[1,2,4]triazolo[1,5-a]pyridin-2-ylamino]-phenyl}-piperidin-1-yl)-acetamide], the IC50 on human FAK is 384 nM; at human JAK2, 0.41 nM.

Turning to `CN1CCN(c2ccc(Nc3nc4c(N(C)Cc5ccccc5N(C)S(C)(=O)=O)cccn4n3)cc2)CC1` [Example 185, N-Methyl-N-{2-[(methyl-{2-[4-(4-methyl-piperazin-1-yl)-phenylamino]-[1,2,4]triazolo[1,5-a]pyridin-8-yl}-amino)-methyl]-phenyl}-methanesulfonamide], the 50% inhibitory concentration (IC50) on human FAK came out at 62.5 nM; on human JAK2 it was 51.1 nM.

`CS(=O)(=O)c1ccc(-c2cccn3nc(Nc4cccc(N5CCN(CCCF)CC5)c4)nc23)cc1` [Example 187, {3-[4-(3-Fluoro-propyl)-piperazin-1-yl]-phenyl}-[8-(4-methanesulfonyl-phenyl)-[1,2,4]triazolo[1,5-a]pyridin-2-yl]-amine]: the IC50 at human FAK is 2440 nM; on human JAK2 it was 4.93 nM.

On to `CN1CCN(c2ccc(Nc3nc4c(C#Cc5ccccc5N(C)S(C)(=O)=O)cccn4n3)cc2)CC1` [Example 189, N-Methyl-N-(2-{2-[4-(4-methyl-piperazin-1-yl)-phenylamino]-[1,2,4]triazolo[1,5-a]pyridin-8-ylethynyl}-phenyl)-methanesulfonamide], for which the IC50 at human FAK is 522 nM; at human JAK2 it was 2.61 nM.

Consider `CN1CCN(c2cccc(Nc3nc4c(C#Cc5ccccc5N(C)S(C)(=O)=O)cccn4n3)c2)CC1` [Example 192, N-Methyl-N-(2-{2-[3-(4-methyl-piperazin-1-yl)-phenylamino]-[1,2,4]triazolo[1,5-a]pyridin-8-ylethynyl}-phenyl)-methanesulfonamide], for which the IC50 on human FAK is 2420 nM; at human JAK2, 23.9 nM.

In the case of `CN1Cc2ccc(Nc3nc4c(C#Cc5ccccc5N(C)S(C)(=O)=O)cccn4n3)cc2C1` [Example 193, N-Methyl-N-{2-[2-(2-methyl-2,3-dihydro-1H-isoindol-5-ylamino)-[1,2,4]triazolo[1,5-a]pyridin-8-ylethynyl]-phenyl}-methanesulfonamide], the IC50 on human FAK is 3000 nM; at human JAK2, 11.5 nM.

Take `CN1CCN(c2ccc(Nc3nc4c(CCc5ccccc5N(C)S(C)(=O)=O)cccn4n3)cc2)CC1` [Example 194, N-Methyl-N-[2-(2-{2-[4-(4-methyl-piperazin-1-yl)-phenylamino]-[1,2,4]triazolo[1,5-a]pyridin-8-yl}-ethyl)-phenyl]-methanesulfonamide]: the figures for the IC50 at human FAK and at human JAK2 were 41.7 nM and 218 nM, respectively.

For the compound `CN1CCN(c2ccc(Nc3nc4c(OCc5ccccc5N(C)S(C)(=O)=O)cccn4n3)cc2)CC1` [Example 195, N-Methyl-N-(2-{2-[4-(4-methyl-piperazin-1-yl)-phenylamino]-[1,2,4]triazolo[1,5-a]pyridin-8-yloxymethyl}-phenyl)-methanesulfonamide], the half-inhibitory concentration (IC50) at human FAK was found to be 21.8 nM; on human JAK2, 15 nM.

Turning to `CN1CCN(c2ccc(Nc3nc4c(/C=C/c5ccccc5N(C)S(C)(=O)=O)cccn4n3)cc2)CC1` [Example 196, N-Methyl-N-[2-((E)-2-{2-[4-(4-methyl-piperazin-1-yl)-phenylamino]-[1,2,4]triazolo[1,5-a]pyridin-8-yl}-vinyl)-phenyl]-methanesulfonamide], the IC50 was determined as 999 nM on human FAK and 32.1 nM at human JAK2.

As for `CC(Nc1cccn2nc(Nc3ccc(N4CCN(C)CC4)cc3)nc12)c1ccccc1N(C)S(C)(=O)=O` (stereo not shown) [Example 197, N-Methyl-N-[2-(1-{2-[4-(4-methyl-piperazin-1-yl)-phenylamino]-[1,2,4]triazolo[1,5-a]pyridin-8-ylamino}-ethyl)-phenyl]-methanesulfonamide], the figures for the IC50 on human FAK and on human JAK2 were 999 nM and 418 nM, respectively.

As to `CN1CCN(c2cccc(Nc3nc4c(-c5ccc(P(C)(C)=O)cc5)cccn4n3)c2)CC1` [Example 198, {8-[4-(Dimethyl-phosphinoyl)-phenyl]-[1,2,4]triazolo[1,5-a]pyridin-2-yl}-[3-(4-methyl-piperazin-1-yl)-phenyl]-amine], the 50% inhibitory concentration (IC50) at human FAK is 10000 nM; at human JAK2, 1.73 nM.

Regarding `CP(C)(=O)c1ccc(-c2cccn3nc(N(CCS(C)(=O)=O)c4cccc(C5CCN(CCS(C)(=O)=O)CC5)c4)nc23)cc1` [Example 199, {8-[4-(Dimethyl-phosphinoyl)-phenyl]-[1,2,4]triazolo[1,5-a]pyridin-2-yl}-(2-methanesulfonyl-ethyl)-{3-[1-(2-methanesulfonyl-ethyl)-piperidin-4-yl]-phenyl}-amine], the values for the IC50 at human FAK and at human JAK2 were 10000 nM and 95.8 nM, respectively.

As for `CN(c1ccccc1CNc1cccn2nc(Nc3ccc4c(c3)CCC(N3CCOCC3)CC4)nc12)S(C)(=O)=O` (stereo not shown) [Example 200, N-Methyl-N-(2-{[2-(7-morpholin-4-yl-6,7,8,9-tetrahydro-5H-benzocyclohepten-2-ylamino)-[1,2,4]triazolo[1,5-a]pyridin-8-ylamino]-methyl}-phenyl)-methanesulfonamide], the IC50 on human FAK worked out at 18.2 nM; at human JAK2 it was 134 nM.

For the compound `CN(c1ccccc1CNc1cccn2nc(Nc3ccc4cnccc4c3)nc12)S(C)(=O)=O` [Example 201, N-(2-{[2-(Isoquinolin-6-ylamino)-[1,2,4]triazolo[1,5-a]pyridin-8-ylamino]-methyl}-phenyl)-N-methyl-methanesulfonamide], the IC50 worked out at 167 nM at human FAK and 116 nM at human JAK2.

On to `CN(c1ccccc1CNc1cccn2nc(Nc3ccccc3)nc12)S(C)(=O)=O` [Example 202, N-Methyl-N-{2-[(2-phenylamino-[1,2,4]triazolo[1,5-a]pyridin-8-ylamino)-methyl]-phenyl}-methanesulfonamide], for which the IC50 worked out at 189 nM on human FAK and 571 nM on human JAK2.

Consider `CP(C)(=O)c1ccc(-c2cccn3nc(Nc4cccc(C5CCN(CCS(C)(=O)=O)CC5)c4)nc23)cc1` [Example 203, {8-[4-(Dimethyl-phosphinoyl)-phenyl]-[1,2,4]triazolo[1,5-a]pyridin-2-yl}-{3-[1-(2-methanesulfonyl-ethyl)-piperidin-4-yl]-phenyl}-amine], for which the IC50 worked out at 10000 nM on human FAK and 166 nM at human JAK2.

Regarding `CN1CCN(c2cccc(Nc3nc4c(-c5ccc(S(C)(=O)=O)cc5)cccn4n3)c2)C(=O)C1` [Example 204, 1-{3-[8-(4-Methanesulfonyl-phenyl)-[1,2,4]triazolo[1,5-a]pyridin-2-ylamino]-phenyl}-4-methyl-piperazin-2-one], the IC50 turned out to be 10000 nM at human FAK and 1.63 nM on human JAK2.

With `CN1CCN(c2cccc(Nc3nc4c(-c5ccc(N6CCC(N7CCN(C)CC7)CC6)cc5)cccn4n3)c2)CC1` [Example 206, [3-(4-Methyl-piperazin-1-yl)-phenyl]-(8-{4-[4-(4-methyl-piperazin-1-yl)-piperidin-1-yl]-phenyl}-[1,2,4]triazolo[1,5-a]pyridin-2-yl)-amine], the IC50 on human FAK worked out at 3000 nM; at human JAK2 it was 45 nM.

`CN1CCN(c2cccc(Nc3nc4c(-c5ccc(P(C)(C)=O)cc5)cccn4n3)c2)C(=O)C1` [Example 207, 1-(3-{8-[4-(Dimethyl-phosphinoyl)-phenyl]-[1,2,4]triazolo[1,5-a]pyridin-2-ylamino}-phenyl)-4-methyl-piperazin-2-one]: the IC50 was 10000 nM at human FAK and 10.5 nM at human JAK2.

With `CCN1CCN(c2cccc(Nc3nc4c(-c5ccc(P(C)(C)=O)cc5)cccn4n3)c2)C(=O)C1` [Example 208, 1-(3-{8-[4-(Dimethyl-phosphinoyl)-phenyl]-[1,2,4]triazolo[1,5-a]pyridin-2-ylamino}-phenyl)-4-ethyl-piperazin-2-one], the values for the IC50 at human FAK and at human JAK2 were 10000 nM and 13.2 nM, respectively.

`CCn1cc(Nc2nc3c(-c4ccc(S(C)(=O)=O)cc4)cccn3n2)cn1` [Example 209, (1-Ethyl-1H-pyrazol-4-yl)-[8-(4-methanesulfonyl-phenyl)-[1,2,4]triazolo[1,5-a]pyridin-2-yl]-amine]: the IC50 on human FAK turned out to be 10000 nM; on human JAK2, 1.88 nM.

The record behind these values is patent US8501936B2 (priority 2009, dated 2013).
